Literature values as cited in US20030153514A1, “Remedies for cancer” (priority 2000, published 2003).

System: NKT cells (Vα24Vβ11)
Settings: cancer-bearing mice

CCCCCCCCCCCCCCCCCCCCCCCCCC(=O)N[C@@H](CO[C@H]1O[C@H](CO)[C@H](O)[C@H](O)[C@H]1O)[C@H](O)[C@H](O)CCCCCCCCCCCCCC [α-galactosylceramide]
NKT cells: activated
disappearance of cancer: not observed
metastasis: suppressed
